Here are results for 20 compounds from patent US20070287699A1, “ANTIVIRAL AGENTS” (ViroBay, Inc., priority 2006, published 2007).

For this test, the system named is HCV replicon RNA replication in human Huh7 hepatoma cells. Put plainly: HCV replicon assay (activity levels from either or both of HCV replicon assay 1, Huh7/Clone A RT-qPCR, and assay 2, Huh7 ET luc-ubi-neo/ET). The test is classed as cell-based, Hepatitis C virus (HCV). Conditions: Hepatitis C virus, Huh-7, either or both HCV replicon assays: Huh7/Clone A, 48 hours, 72 hours, Luc activity or RT-PCR, read-out: inhibit HCV replication at IC50 levels or estimated IC50 levels. From the text: The HCV replicon assay is a cell-culture system that mimics in vivo HCV replication and provides a system to study HCV replication in vitro. It was created by transfecting cloned viral RNA derived from a consensus HCV genomic sequence into human Huh7 hepatoma cells that are semi-permissive for viral RNA production (Lohmann V., Korner F., Koch J.-O., Herian U., Theilmann L. and Bartenschlager R. (1999). Replication of subgenomic Hepatitis C virus RNAs in a hepatoma cell line. Science 285, 110-113 and Blight K. J., Kolykhalov A. A. and Rice C. M. (2000). Efficient initiation of HCV RNA Replication in cell culture. Science 290, […]). These transfected cell lines contain a subgenomic HCV RNA genome that includes (1) the HCV 5′NTR fused to 12 amino acids of the capsid coding region, (2) the neomycin phosphotransferase gene (Neo) as a selectable marker, (3) the internal ribosome entry site (IRES) from encephalomyocarditis virus (EMCV) that directs translation of HCV non-structural proteins (variously NS2 or NS3 to NS5B), and (4) the 3′ NTR. Replicon-containing cells autonomously and persistently replicate HCV RNA that can be measured quantitatively by real-time qPCR. Therefore, the replicon system facilitates quantitative assessment of anti-viral activity by monitoring changes in HCV RNA replication in a cell-based assay.
HCV replicon-containing cells (Huh7/Clone A) were routinely maintained in Clone A growth medium (DMEM medium [Invitrogen], supplemented with 10% Fetal Bovine Serum, 1% Non Essential Amino Acids and 1 g/L G418). Test compounds were dissolved in dimethyl sulfoxide (DMSO) to make 200× stock solutions for all doses prior to treatment.
For the HCV replicon assay, Huh7/Clone A cells were trypsinized from culture flasks, seeded in 1 ml of Clone A growth medium without G418 at 4×10^4 cells per well in 24-well plates and incubated at 37° C. in a humidified CO2 (5%) incubator overnight. Following overnight incubation, compound solutions were added into wells in the same volume (5 μl of 200× compound stock per well) to give a final DMSO concentration of 0.5%. Three wells on each plate supplemented with 5 μl of DMSO served as untreated controls. For IC50 determinations, compounds were tested at 7 serial dilutions in triplicates from the starting stock solutions. The plates were incubated at 37° C. for 48 hours. After incubation, cells were harvested, transferred to 96-well plates, and subjected to total RNA extraction using the RNA Isolation Kit (RNeasy 96, Qiagen) according to the protocol described by the manufacture's RNeasy 96 Handbook (Qiagen).
Total RNA eluted in 130 μl of RNase-free dH2O was quantitated by the RiboGreen Assay according to the supplier's protocol (Molecular Probe). Briefly, 5 μl of RNA samples were aliquoted in duplicate to a 96-well black microplate and a 96-well TaqMan Optical plate. RNA samples in the black microplate were mixed with 95 μl of diluted RiboGreen:reagent (1:250 dilution in TE buffer) and sample fluorescence was measured using a fluorescence microplate reader at standard fluorescein wavelengths (excitation ˜480 nm, emission ˜520 nm). Ribosomal RNA (Molecular Probe) was used as standard.
TaqMan quantitative PCR (RT-qPCR) was used to quantitate the amount of HCV replicon RNA in each sample. The RT-qPCR reactions were performed in 25 μl on an ABI PRISM 7900 HT Sequence Detection System (Applied Biosystems). The reaction mixture contained 5 μl of total RNA (10-100 ng), 1× TaqMan Buffer A (Applied Biosystems), 5.5 mM MgCl2, 1.2 mM dNTP mix, 0.625 U of AmpliTaq Gold (Applied Biosystems), 5 U of MMLV reverse transcriptase (Promega), 5 U of rRNasin (Promega), 300 nM each of the forward and reverse primers, and 100 nM TaqMan MGB probe. Primers and probe were designed to hybridize to a portion of the neomycin resistance gene (neo) in the replicon and the sequences are as follows: forward primer 5′-GGCTACCTGCCCATTCGA-3′; reverse primer 5′-CCGGCTTCCATCCGAGTAC-3′; MGB probe 5′-CCACCAAGCGAAACA-3′. […]
Consider `CN1CCN(c2cc3c(cc2F)c(=O)c(-c2noc(Cc4ccccc4)n2)cn3Cc2ccc(Cl)nc2)CC1` [Compound 65, 3-(5-benzyl-[1,2,4]oxadiazol-3-yl)-1-(6-chloro-pyridin-3-ylmethyl)-6-fluoro-7-(4-methyl-piperazin-1-yl)-1H-quinolin-4-one], for which the IC50 is less than 10 µM.
On to `Cc1cn(-c2cc3c(cc2F)c(=O)c(-c2noc(Cc4ccccc4)n2)cn3Cc2ccc(C(F)(F)F)cc2F)cn1` [Compound 57, 3-(5-benzyl-[1,2,4]oxadiazol-3-yl)-6-fluoro-1-(2-fluoro-4-trifluoromethyl-benzyl)-7-(4-methyl-imidazol-1-yl)-1H-quinolin-4-one], for which the IC50 was less than 10 µM.
For `CN1CCN(c2cc3c(cc2F)c(=O)c(-c2noc(Cc4ccccc4CC(=O)O)n2)cn3Cc2ccc(Cl)cc2)CC1` [Compound 22, (2-{3-[1-(4-chloro-benzyl)-6-fluoro-7-(4-methyl-piperazin-1-yl)-4-oxo-1,4-dihydro-quinolin-3-yl]-[1,2,4]oxadiazol-5-ylmethyl}-phenyl)-acetic acid], the 50% inhibitory concentration (IC50) was greater than 10 µM.
On to `CN1CCN(c2cc3c(cc2F)c(=O)c(-c2noc(Cc4ccc(F)cc4)n2)cn3Cc2ccc(F)cc2F)CC1` [Compound 44, 1-(2,4-difluoro-benzyl)-6-fluoro-3-[5-(4-fluoro-benzyl)-[1,2,4]oxadiazol-3-yl]-7-(4-methyl-piperazin-1-yl)-1H-quinolin-4-one], for which the IC50 is less than 2 µM.
Turning to `CN1CCN(c2cc3c(cc2F)c(=O)c(-c2noc(Cc4ccc(F)cc4)n2)cn3Cc2cccc(C(F)(F)F)c2)CC1` [Compound 91, 6-fluoro-3-[5-(4-fluoro-benzyl)-[1,2,4]oxadiazol-3-yl]-7-(4-methyl-piperazin-1-yl)-1-(3-trifluoromethyl-benzyl)-1H-quinolin-4-one], the IC50 is less than 2 µM.
With `O=c1c(-c2noc(Cc3ccccc3)n2)cn(Cc2ccc(Cl)cc2)c2cc(N3CCC(O)CC3)c(F)cc12` [Compound 26, 3-(5-benzyl-[1,2,4]oxadiazol-3-yl)-1-(4-chloro-benzyl)-6-fluoro-7-(4-hydroxy-piperidin-1-yl)-1H-quinolin-4-one] the figure was greater than 10 µM; with `COc1ccc2c(c1)c(=O)c(-c1noc(Cc3ccccc3)n1)cn2CC1CCCCC1` [Compound 10, 3-(5-benzyl-[1,2,4]oxadiazol-3-yl)-1-cyclohexylmethyl-6-methoxy-1H-quinolin-4-one], greater than 10 µM.
As to `CN1CCN(c2cc3c(cc2F)c(=O)c(-c2noc(CN4CCCC4)n2)cn3Cc2ccc(Cl)cc2)CC1` [Compound 54, 1-(4-chloro-benzyl)-6-fluoro-7-(4-methyl-piperazin-1-yl)-3-(5-pyrrolidin-1-ylmethyl-[1,2,4]oxadiazol-3-yl)-1H-quinolin-4-one], the half-maximal inhibitory concentration (IC50) was greater than 10 µM.
Take `CN1CCN(c2cc3c(cc2F)c(=O)c(-c2noc(Cc4ccc(F)cc4F)n2)cn3Cc2ccc(Cl)cc2)CC1` [Compound 32, 1-(4-chloro-benzyl)-3-[5-(2,4-difluoro-benzyl)-[1,2,4]oxadiazol-3-yl]-6-fluoro-7-(4-methyl-piperazin-1-yl)-1H-quinolin-4-one]: the IC50 is greater than 10 µM.
In the case of `CN1CCN(c2cc3c(cc2F)c(=O)c(-c2noc(Cc4ccccc4)n2)cn3Cc2ccc(C(F)(F)F)cc2)CC1` [Compound 36, 3-(5-benzyl-[1,2,4]oxadiazol-3-yl)-6-fluoro-7-(4-methyl-piperazin-1-yl)-1-(4-trifluoromethyl-benzyl)-1H-quinolin-4-one], the IC50 was less than 2 µM.
Take `CN1CCN(c2cc3c(cc2F)c(=O)c(-c2noc(CN4CCCCC4)n2)cn3Cc2ccc(Cl)cc2)CC1` [Compound 52, 1-(4-chloro-benzyl)-6-fluoro-7-(4-methyl-piperazin-1-yl)-3-(5-piperidin-1-ylmethyl-[1,2,4]oxadiazol-3-yl)-1H-quinolin-4-one]: the IC50 was greater than 10 µM.
As for `CN1CCN(c2cc3c(cc2F)c(=O)c(-c2noc(Cc4ccc(F)cc4)n2)cn3CCN2CCOCC2)CC1` [Compound 58, 6-fluoro-3-[5-(4-fluoro-benzyl)-[1,2,4]oxadiazol-3-yl]-7-(4-methyl-piperazin-1-yl)-1-(2-morpholin-4-yl-ethyl)-1H-quinolin-4-one], the IC50 was greater than 10 µM.
Consider `CNc1cc2c(cc1F)c(=O)c(-c1noc(Cc3ccccc3)n1)cn2Cc1ccc(C(F)(F)F)cc1F` [Compound 55, 3-(5-Benzyl-[1,2,4]oxadiazol-3-yl)-6-fluoro-1-(2-fluoro-4-trifluoromethyl-benzyl)-7-methylamino-1H-quinolin-4-one], for which the IC50 was greater than 10 µM.
`CN1CCN(c2cc3c(cc2F)c(=O)c(-c2noc(CC4CC4)n2)cn3CC2CCCCC2)CC1` [Compound 14, 1-cyclohexylmethyl-3-(5-cyclopropylmethyl-[1,2,4]oxadiazol-3-yl)-6-fluoro-7-(4-methyl-piperazin-1-yl)-1H-quinolin-4-one]: the IC50 was less than 10 µM.
With `CN1CCN(c2cc3c(cc2F)c(=O)c(-c2nnc(Cc4ccccc4)o2)cn3Cc2ccc(C(F)(F)F)cc2F)CC1` [Compound 165, 3-(5-benzyl-[1,3,4]oxadiazol-2-yl)-1-(4-(2-fluoro-4-trifluormethyl)-benzyl)-6-fluoro-7-(4-methyl-piperazin-1-yl)-1H-quinolin-4-one] the figure was less than 2 µM.
As to `COc1cc2c(=O)c(-c3noc(C4(c5ccccc5)CC4)n3)cn(Cc3ccc(Cl)cc3)c2cc1OC` [Compound 2, 1-(4-chloro-benzyl)-6,7-dimethoxy-3-[5-(1-phenyl-cyclopropyl)-[1,2,4]oxadiazol-3-yl]-1H-quinolin-4-one], the IC50 is greater than 10 µM.
`O=c1c(-c2nc(Cc3ccc(F)cc3)no2)cn(Cc2ccc(C(F)(F)F)cc2)c2cc(N3CCOCC3)c(F)cc12` [Compound 172, 6-fluoro-3-(3-(4-fluorobenzyl)-1,2,4-oxadiazol-5-yl)-7-morpholino-1-(4-(trifluoromethyl)benzyl)quinolin-4(1H)-one]: the IC50 is greater than 10 µM.
With `CN1CCN(c2cc3c(cc2F)c(=O)c(-c2noc(Cc4ccc(F)cc4)n2)cn3Cc2c(F)cccc2F)CC1` [Compound 49, 1-(2,6-difluoro-benzyl)-6-fluoro-3-[5-(4-fluoro-benzyl)-[1,2,4]oxadiazol-3-yl]-7-(4-methyl-piperazin-1-yl)-1H-quinolin-4-one] the figure was less than 10 µM; with `CC(C)(c1ccc(Cl)cc1)c1nc(-c2cn(Cc3ccc(C(F)(F)F)cc3)c3cc(N4CCS(=O)(=O)CC4)c(F)cc3c2=O)no1` [Compound 127, 3-(5-(2-(4-chlorophenyl)propan-2-yl)-1,2,4-oxadiazol-3-yl)-6-fluoro-7-dioxo-thiomorpholino-1-(4-(trifluoromethyl)benzyl)quinolin-4(1H)-one], less than 10 µM.
For `CC(C)(c1ccccc1)c1nc(-c2cn(Cc3ccc(C(F)(F)F)cc3)c3cc(N4CCS(=O)(=O)CC4)c(F)cc3c2=O)no1` [Compound 100, 7-(1,1-dioxo-thiomorpholin-4-yl)-6-fluoro-3-[5-(1-methyl-1-phenyl-ethyl)-[1,2,4]oxadiazol-3-yl]-1-(4-trifluoromethyl-benzyl)-1H-quinolin-4-one], the IC50 is less than 0.5 µM.

The IC50 is the concentration needed to halve the response being measured.
